Measured values taken from patent US10613078B2, “Assays for measuring cardiotoxicity” (NCARDIA B.V., priority 2015, dated 2020).

Test system: human stem-cell derived cardiomyocytes
Assay: Promega ATP assay (CellTiter-Glo luminescent cell viability) on cardiomyocytes
Assay type: cell-based
Text: Cells were dissociated at day 21 using 10× TrypLE select and replated at 20.000 cells/well in white 96-well plates (Corning 655098) and treated according to the protocol shown in FIG. 1. Alternatively, Pluricyte Cardiomyocytes were obtained from Pluriomics (Leiden, The Netherlands). The cryopreserved cells were recovered in maintained in Pluricyte Medium (Pluriomics, Leiden, The Netherlands) and thereafter cultivated on medium without glucose and/or galactose but comprising fatty acids and carnitine as described below. […]
After two days, an ATP viability assay was performed. ATP values were measured using the Promega Cell titer Glo luminescent cell viability kit according to manufacturers instructions. […] Available ATP is measured via an ATP dependent conversion of Luciferin by a recombinant Luciferase, which produces oxyluciferin and light. The amount of luminescence generated is therefore directly proportional to the amount of ATP in the cells.

COc1cccc2c1C(=O)c1c(O)c3c(c(O)c1C2=O)C[C@@](O)(C(=O)CO)C[C@@H]3O[C@H]1C[C@H](N)[C@H](O)[C@H](C)O1 [doxorubicin] was tested, and the “effect on ATP levels” value (cardiomyocytes cultivated in the presence of glucose, various concentrations of doxorubicin, n=6 (FIG. 2)) was “shows a clear effect on ATP levels” and the “mitochondrial toxicity (ATP levels), CM versus CM− medium” value (cells grown in CM (with glucose) compared with CM− (without glucose and galactose, with fatty acids and carnitine) (FIG. 3, lower panel)) was “more pronounced in cells cultured in CM−”.
